Data as given in PMC12254266, “Multicolored sequential resonance energy transfer for detection of simultaneous ligand binding at G protein-coupled receptors” (Nature Communications, 2025).
Several values for one entry are separate records, joined by “and”; a condition that tells them apart may be missing. Identical values can stand only once.

Columns and labels:
FFA1 = FFA1 (Homo sapiens, UniProt O14842); assay: Ca2+ mobilisation (Fura2) in Flp-In T-REx 293 cells expressing Nluc-FFA1, FFA1-Nluc or untagged FFA1; type: cell-based; design: expressed in transfected cells; details: for Ca2+ Response as a % of T360 Response: single technical replicates
Procedure, shortened: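 520 nm emission read at 340 and 380 nm excitation over 90 s spanning compound addition. Response taken as peak 340/380 ratio after subtracting pre-addition ratios.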

FFA1-Nluc [1] = biological target: T1, FFA1-Nluc (Homo sapiens, UniProt O14842); assay: DISCo-BRET (endpoint, spectra scan, kinetics) with TUG-2591 and TUG-2597 at C terminal Nluc tagged FFA1; type: binding; design: expressed in transfected cells; details: for Specific BRET (540/450), % of control: Figure 4Bii, single replicate values (technical duplicate)
Procedure, shortened: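 After Nano-Glo substrate (1:800 final), ligand-treated FFA1-Nluc or Nluc-FFA1 cells, doxycycline-induced (100 ng/mL), were read. Kinetic association/dissociation runs were at 25 °C; endpoint and 440–740 nm spectra came after 5 min at 37 °C. Non-specific signal came from competing ligands at high concentration.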

FFA1-Nluc [2] = biological target: T1, FFA1-Nluc; assay: Bystander BRET internalisation assay, FFA1-Nluc in HEK293T cells; type: cell-based; design: expressed in transfected cells; host or cells: HEK293T (ATCC, CRL-3216), transient; details: in words; up to 60 min
Method: Cells were transfected using a reverse transfection protocol while plating into a poly-D-lysine coated white 96-well plates. Cells were plated at 60,000 cells with 100 ng of plasmid DNA and 0.6 µg of polyethyleneimine (PEI) per well. Cells were cultured for 24 h before washing with HBSS and incubating in HBSS at 37 °C for 30 min. NanoGlo substrate was added a final 1:800 dilution and plates incubated for 10 min at 37 °C. […] After 5 min of baseline measurements, readings were paused and test compounds added to the plate.

T1 sequence (O14842 whole entry): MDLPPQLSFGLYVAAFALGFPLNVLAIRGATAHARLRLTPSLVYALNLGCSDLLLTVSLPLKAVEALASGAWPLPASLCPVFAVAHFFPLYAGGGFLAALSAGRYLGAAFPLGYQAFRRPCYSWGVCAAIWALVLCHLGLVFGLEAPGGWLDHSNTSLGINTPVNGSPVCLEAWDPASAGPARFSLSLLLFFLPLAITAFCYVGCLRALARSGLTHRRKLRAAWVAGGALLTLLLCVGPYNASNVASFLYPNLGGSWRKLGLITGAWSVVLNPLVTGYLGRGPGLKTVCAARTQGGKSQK
Chain of FFA1 (O14842 whole entry): as above

SMILES: COc1ccc(CCCC(C)(C)C)c(N2CCC(COc3cccc(C(CC(=O)O)C4CC4)c3)CC2)c1.O=C(O)C(F)(F)F (stereo not shown) [T360]
- pEC50 (FFA1; Ca2+ data, mean±SEM, NR = No response): 7.48±0.31
- Ca2+ Response as a % of T360 Response (FFA1; log[Ligand] -6): 107.28% and 92.72% and 101.13% and 98.87% and 101.25% and 98.75%
- Ca2+ Response as a % of T360 Response (FFA1; log[Ligand] -6.5): 78.71% and 83.08% and 86.23% and 89.07% and 107.10% and 103.71%
- Ca2+ Response as a % of T360 Response (FFA1; log[Ligand] -7): 50.40% and 57.83% and 53.05% and 49.34% and 105.47% and 92.83%
- Ca2+ Response as a % of T360 Response (FFA1; log[Ligand] -7.5): 52.48% and 51.74% and 26.53% and 33.96% and 89.83% and 84.58%
- Ca2+ Response as a % of T360 Response (FFA1; log[Ligand] -8): 4.55% and 3.96% and 1.45% and 1.23% and 56.26% and 55.08%
- Ca2+ Response as a % of T360 Response (FFA1; log[Ligand] -9): 6.44% and -16.92% and -0.13% and -0.73% and -0.82% and -0.55%
- Ca2+ Response as a % of T360 Response (FFA1; log[Ligand] -10): -18.12% and -11.48% and -0.62% and 0.09% and -1.11% and 0.64%
- EMax (FFA1; percentage of response to 10 μM T360, NR = No response): 105±5%
- pIC50 DISCo-BRET NBD/Nluc (FFA1-Nluc [1]; 100 nM TUG-2591 and […] TUG-2597, NC = No competition): 7.1±0.2
- pIC50 DISCo-BRET SulfoCy5/NBD (FFA1-Nluc [1]; 100 nM TUG-2591 and […] TUG-2597, one site model, NC = No competition): 7.6±0.1
- Specific BRET (540/450), % of control (FFA1-Nluc [1]; log[Ligand] -5): 1.63 % of control and 7.70 % of control and -6.77 % of control and 6.77 % of control and -12.97 % of control and -14.56 % of control and 1.39 % of control and 12.17 % of control and -49.44 % of control and -45.86 % of control and -1.49 % of control and 1.49 % of control and 11.42 % of control and 8.60 % of control
- Specific BRET (540/450), % of control (FFA1-Nluc [1]; log[Ligand] -5.5): 30.05 % of control and 22.50 % of control and 2.63 % of control and 15.04 % of control and 41.18 % of control and 27.53 % of control and 25.39 % of control and 35.48 % of control and -24.38 % of control and -7.83 % of control and -19.08 % of control and -0.74 % of control and 16.94 % of control and 11.73 % of control
- Specific BRET (540/450), % of control (FFA1-Nluc [1]; log[Ligand] -6): 30.79 % of control and 26.05 % of control and 32.33 % of control and 27.63 % of control and 21.16 % of control and 17.29 % of control and 31.30 % of control and 14.26 % of control and 23.94 % of control and -20.81 % of control and -12.14 % of control and 8.18 % of control and 24.56 % of control and 26.12 % of control
- Specific BRET (540/450), % of control (FFA1-Nluc [1]; log[Ligand] -6.5): 56.11 % of control and 56.70 % of control and 19.92 % of control and 23.50 % of control and 31.40 % of control and 51.88 % of control and 45.22 % of control and 38.96 % of control and 25.28 % of control and 31.99 % of control and -27.26 % of control and -0.25 % of control and 41.03 % of control and 36.03 % of control
- Specific BRET (540/450), % of control (FFA1-Nluc [1]; log[Ligand] -7): 69.58 % of control and 52.70 % of control and 27.26 % of control and 51.32 % of control and 37.09 % of control and 73.27 % of control and 43.13 % of control and 45.22 % of control and 35.12 % of control and 64.21 % of control and 2.48 % of control and 20.07 % of control and 56.78 % of control and 46.56 % of control
- Specific BRET (540/450), % of control (FFA1-Nluc [1]; log[Ligand] -8): 90.01 % of control and 86.45 % of control and 67.29 % of control and 72.37 % of control and 95.79 % of control and 112.63 % of control and 106.43 % of control and 144.35 % of control and 71.81 % of control and 80.31 % of control and 48.08 % of control and 68.65 % of control and 78.15 % of control and 70.13 % of control
- Specific BRET (540/450), % of control (FFA1-Nluc [1]; log[Ligand] -9): 104.22 % of control and 94.30 % of control and 79.70 % of control and 92.67 % of control and 141.30 % of control and 86.46 % of control and 144.00 % of control and 157.22 % of control and 122.37 % of control and 108.50 % of control and 74.10 % of control and 106.82 % of control and 97.86 % of control and 85.14 % of control
- 'bottom' of the IC50 curve, DISCo-BRET NBD/Nluc (FFA1-Nluc [1]; percentage of binding obtained in the absence of competing ligand): 2.7%
- 'bottom' of the IC50 curve, DISCo-BRET SulfoCy5/NBD (FFA1-Nluc [1]; percentage of binding obtained in the absence of competing ligand, 100 nM TUG-2591 and […] TUG-2597): 25%
- pKi DISCo-BRET NBD/Nluc (FFA1-Nluc [1]; using Kd TUG-2597 380 nM): 7.3±0.2
- internalization of FFA1-Nluc (FFA1-Nluc [2]): No internalization
